Where a SMILES comes first, the peptide text is derived from it. Where no end group is shown, it is not given here. The star is where a group is joined. Fmoc = O=C(OCC1c2ccccc2-c2ccccc21)*
Experiments:
CL1-5 cells [1] = assay: Cell proliferation assay in CL1-5 cells; format: cell-based; conditions: for growth inhibition (cell proliferation): Fmoc modified peptides, 24 h, FIG. 1 and FIG. 2; for Growth inhibition: LT fragments at 0, 12.5, 25 and 50 μM
Procedure: The peptides described below were Fmoc modified and dissolved in DMSO and […] and then used in cell proliferation assay. CL1-5 cells were cultured to 80% confluence in RPMI medium containing 10% FBS. After detachment, 3×10^4[…]cells were seeded onto 12-well plates. After 16 h of incubation, cells were either harvested before treatment (designated as 0 h), or treated with LT peptides for 24 h (designated 24 h), and viable cells were counted. Relative fold-change in cell number or percent increase in cell growth (%) was calculated by following formula: (Cell number24h−Cell number0h)/(Cell number of control24h−Cell number of control0h).

H1355 = assay: Cell proliferation assay in H1355 lung cancer cell line; format: cell-based; conditions: H1355, FIG. 4
H460 = assay: Cell proliferation assay in H460 lung cancer cell line; format: cell-based; conditions: H460, FIG. 4
H1299 = assay: Cell proliferation assay in H1299 lung cancer cell line; format: cell-based; conditions: H1299, FIG. 4
A549 = assay: Cell proliferation assay in A549 lung cancer cell line; format: cell-based; conditions: A549, FIG. 4
CL1-5 cells [2] = assay: Cell invasion assay (Matrigel-coated modified Boyden chamber) in CL1-5 cells; format: cell-based; conditions: for Invasion inhibition: LT fragments at 0, 12.5, 25 and 50 μM, FIG. 12
Procedure: Fmoc-LT1-3 peptides were used in cell invasion assay. A 24-well modified Boyden chamber with a polycarbonate membrane (8-μm pore size) was used for in vitro invasion assays. […] CL1-5 cells (3×10^4 cells/well) in RPMI medium with various concentrations of peptide were seeded onto the upper chamber. […] After 24 h of incubation, the cells were fixed with ice-cold 100% methanol and stained with 10% Giemsa. Following staining, cells on the upper side of the membrane were removed with a cotton swab. The number of invaded cells attached to the lower surface of the polycarbonate membranes was counted under a light microscope. All experiments were performed in triplicate.

CL1-5 lung cancer cells = assay: Tumor growth in xenograft animal model; format: in vivo
Procedure: Six-week old immune deficient BALB/CAnN.Cg-Foxn1nu/CrlBltw mice were housed in individual ventilated chambers (IVC). A total of 2×10^6 CL1-5 lung cancer cells in 100 μL PBS were mixed with 100 μL of 10× Matrigel. The lung cancer cells/Matrigel mix was injected subcutaneously to the lower back of the mice. Three days later, the mice were treated with 0, 10, 20, or 30 nmol of Fmoc-LT-1-3 subcutaneously everyday. The Fmoc-LT-1-3 peptide was dissolved in 100% DMSO and diluted to the desired concentration in PBS from day 3 to day 17. On the 18th day, we observed that 80% of control group animal, 40% of 10 nmol group animal, 20% of 20 nmol group animal, and 40% of 30 nmol group animal developed tumor. Percent of tumor free animal increased with increasing level of Fmoc-LT1-3 between 10 nmol and 20 nmol. […] This phenomenon may be due to lower solubility of Fmoc-LT1-3 at higher concentration. We thus decided to replace the solvent from DMSO with γ-CD, and diluted the peptide to the desired concentration for injection on the 18th day and thereafter. The volume of tumor was measured periodically. […] On the 39th day, animals were sacrificed. The tumor and organs were weighted, fixed and embedded in paraffin. Embedded tissue were sectioned and stained with hematoxylin-eosin for histologic analysis.

CL1-5 cells [3] = format: in vivo, mice
Procedure: CL1-5 cells were washed, detached, and resuspended in PBS. Subsequently, a single-cell suspension containing 2×10^6 cell in 80 μL PBS was mixed with 20 μL 10× Matrigel (Corning, 5117012). The cell suspension was subcutaneously injected into the upper back of the immune deficient BALB/CAnN.Cg-Foxn1nu/CrlBltw mice. […] The tumor-bearing mice were divided into five groups (n=8/group). […] On day 13, the mice in the Fmoc-LT1-3 group were subcutaneously injected with 20 nmol Fmoc-LT1-3/γ-CD in the lower back daily. […] During the course of each treatment, the tumor volume was measured every 3 days. The mortality rates of mice were recorded, which included mice with tumor volume over 1500 mm^3. The percent of survival rate is recorded in FIG. 11 and the median survival of each group is calculated in Table 1.

| Compound | growth inhibition (cell proliferation) (CL1-5 cells [1]; CL1-5 cells) | Growth inhibition (CL1-5 cells [1]; CL1-5 cells) | Invasion inhibition (CL1-5 cells [2]) | further results |
| --- | --- | --- | --- | --- |
| Fmoc-LT-A3: Fmoc binds to N terminal of FHAVELLA (SEQ ID NO:10) (Fmoc-FHAVELLA) | best growth inhibition capability | – | – | growth inhibition in lung cancer cell lines (CL1-5 cells [1]; CL1-5, FIG. 4): greatly inhibited; growth inhibition, dose effect experiment (CL1-5 cells [1]; Fmoc-LT-peptides, CL1-5 cells, FIG. 3): best growth inhibition capability; growth inhibition in lung cancer cell lines (H1355): greatly inhibited; growth inhibition in lung cancer cell lines (H460): greatly inhibited; growth inhibition in lung cancer cell lines (H1299): partially inhibited; growth inhibition in lung cancer cell lines (A549): no effect; cell invasion inhibition (CL1-5 cells [2]; Fmoc peptides, 24 h, FIG. 5): inhibited cell invasion |
| FAIVELLA (Fmoc-FAIVELLA) [LT-A2, Fmoc modified in the proliferation assay] | better inhibition activity than F-moc-LT1-3 peptide | – | – | – |
| O=S(=O)(NCCNC/C=C/c1ccc(Br)cc1)c1cccc2cnccc12 [H89, reference compound] | – | – | – | LT-peptide-mediated growth inhibition together with PKA inhibitor (H89) (CL1-5 cells [1]; CL1-5 cells, FIG. 24): enhances growth inhibition activity |
| CC[C@H](C)[C@H](NC(=O)[C@H](Cc1c[nH]cn1)NC(=O)[C@H](Cc1ccccc1)NC(=O)OCC1c2ccccc2-c2ccccc21)C(=O)N[C@H](C(=O)N[C@@H](CCC(=O)O)C(=O)N[C@@H](CC(C)C)C(=O)N[C@@H](CC(C)C)C(=O)N[C@@H](C)C(=O)O)C(C)C [Fmoc-LT1-3] (Fmoc-FHIVELLA-OH; N-terminus and C-terminus assumed) | – | – | – | histologic analysis, toxicity (CL1-5 lung cancer cells; hematoxylin-eosin stained tissue, day 39): did not reveal obvious toxicity; relative weight of organs (CL1-5 lung cancer cells; treatment groups vs control group, day 39, FIG. 9): no significant differences; effect on cisplatin-induced toxicity (CL1-5 cells [3]; combination treatment with cisplatin vs cisplatin only group): alleviate cisplatin-induced toxicity |
| FHIVEALA (Fmoc-FHIVEALA) [LT-A6, Fmoc modified in the proliferation assay] | better inhibition activity than F-moc-LT1-3 peptide | – | – | – |
| FHIAELLA (Fmoc-FHIAELLA) [LT-A4, Fmoc modified in the proliferation assay] | better inhibition activity than F-moc-LT1-3 peptide | – | – | – |
| GGMPGKSNVASLRQAPGQNGTSF [LT-4] | – | No | inhibitory effect on cell invasion only and Yes | – |
| LRQAPGQNGTSFHGCIRNLYINSE [LT-5] | – | No | inhibitory effect on cell invasion only and Yes | – |
| KIITNLSKQSTLNFDSPLYVGG [LT-3] | – | No | inhibitory effect on cell invasion only and Yes | – |
| ASAIYSVETINDGNFHIVELLA [LT-1] | – | inhibitory effect and Yes | inhibitory effect and Yes | – |
| FHIVELAA (Fmoc-FHIVELAA) [LT-A7, Fmoc modified in the proliferation assay] | better inhibition activity than F-moc-LT1-3 peptide | – | – | – |
| AHIVELLA (Fmoc-AHIVELLA) [LT-A1, Fmoc modified in the proliferation assay] | better inhibition activity than F-moc-LT1-3 peptide | – | – | – |
| N.N.[Cl][Pt][Cl] [cisplatin, reference compound] | – | – | – | Median survival (CL1-5 cells [3]; single agent: cisplatin 4 mg/kg IP weekly 4 times, or 20 nmol Fmoc-LT1-3/γ-CD s.c. daily): 37.5 days |
